This is an account of results in patent US6790865B2, “2-methylpropionic acid derivatives and pharmaceutical compositions comprising the same” (Kissei Pharmaceutical Co., Ltd., priority 1998, dated 2004).

One data set deals with β3-adrenoceptor (Mustela putorius furo, UniProt M3YEU4). The data set is described as follows: β3-adrenoceptor stimulating effects, isolated ferret urinary bladder smooth muscle relaxation (Magnus method). The settings on record: isolated male ferret urinary bladder smooth muscle strips; 0% = maximal relaxation after 10^−5M forskolin; read-out: EC50 (concentration producing 50% decrease of urinary bladder tension). In kind it is cell-based. The protocol: Namely, urinary bladders of ferrets were isolated and preparations were made. The experiment was conducted according to the Magnus method. The […] tension without the addition of the drug is expressed as 100%, and the tension of maximal relaxation after the addition of 10^−5M of forscolin was expressed as 0%. The drug was added cumulatively. The β3-adrenoceptor stimulating effects were evaluated as the concentration of the drug required to produce 50% decrease of the tension (i.e., EC50 value) (The Japanese Journal of Urology, Vol.89, No.2, p.272 (1998)).
Chain of β3-adrenoceptor (M3YEU4 entry or part of it): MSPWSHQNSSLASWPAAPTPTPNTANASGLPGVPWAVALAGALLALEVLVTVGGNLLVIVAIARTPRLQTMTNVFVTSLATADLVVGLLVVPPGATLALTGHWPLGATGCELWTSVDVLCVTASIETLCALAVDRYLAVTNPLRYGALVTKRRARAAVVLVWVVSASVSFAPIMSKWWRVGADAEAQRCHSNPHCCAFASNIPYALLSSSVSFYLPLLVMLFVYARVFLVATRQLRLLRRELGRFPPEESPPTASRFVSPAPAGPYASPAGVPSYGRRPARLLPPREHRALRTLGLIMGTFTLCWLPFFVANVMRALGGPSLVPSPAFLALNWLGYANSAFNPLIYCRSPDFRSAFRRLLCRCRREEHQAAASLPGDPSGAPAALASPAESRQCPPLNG
The Experiment for Measuring β3-Adrenoceptor Stimulating Effects
Urinary bladders of male ferrets (1100 to 1400 g in body weight) were isolated and urinary bladder smooth muscle strips of approximately 10 mm in length and approximately 2 mm in width were prepared. The experiment was conducted according to the Magnus method. The preparations with a tension of 1 g were exposed to Krebs-Henseleit solution maintained at 37° C. and gassed with a mixture of 95% oxygen and 5% carbon dioxide. Basal tensions of urinary bladder were isometrically measured with a force-displacement transducer and recorded on a rectigram. […] In this experiment, tension of urinary bladder smooth muscle before the addition of the drug was expressed as 100% and tension of maximal relaxation after the addition of 10^−5M concentration of forskolin was expressed as 0%.

A further data set concerns the target T1, β1-adrenoceptor (Rattus norvegicus, UniProt P18090).
T1 construct: Atria of male SD rats (250 to 400 g in body weight) were isolated; from tissue; host or cells: isolated atria of male SD rats
The experiment in a line: β1-adrenoceptor stimulating effects, isolated rat atria heart rate increase (Magnus method). In kind it is cell-based. The settings on record: isolated male SD rat atria; 100% = heart rate increase after 10^−8M isoproterenol; read-out: EC50 (concentration producing 50% increase of heart rate). The protocol: Namely, atria of rats were isolated and preparations were made. The experiment was conducted according to the Magnus method. The increment of heart rate after the addition of isoproterenol (10^−8M) was expressed as 100%. The drug was added cumulatively. The β1-adrenoceptor stimulating effects were evaluated as the concentration of the drug required to produce 50% increase of heart rate (i.e., EC50 value).
The Experiment for Measuring β1-Adrenoceptor Stimulating Effects
Atria of male SD rats (250 to 400 g in body weight) were isolated and the experiment was conducted according to the Magnus method. The preparations with a tension of 0.5 g were exposed to Krebs-Henseleit solution maintained at 37° C. and gassed with a mixture of 95% oxygen and 5% carbon dioxide. The cardiac contractility was isometrically measured with a force-displacement transducer, and heart rate was recorded on a rectigram via a tachometer. The drug was added cumulatively. The drug efficacy was evaluated as the concentration of the drug required to produce 50% increase of heart rate per minute (i.e., EC50 value). In this experiment, increase of heart rate per minute after addition of 10^−8M of isoproterenol was expressed as 100%.

The next data set has as its target T2, β2-adrenoceptor (Rattus norvegicus, UniProt P10608).
T2 construct: Uteri of pregnant SD rats (pregnancy day 21) were isolated; from tissue; host or cells: longitudinal uterine strips of pregnant SD rats (day 21)
The data set is described as follows: β2-adrenoceptor stimulating effects, isolated pregnant rat uterus contraction inhibition (Magnus method). The data set is classed as cell-based. The settings on record: isolated uteri of pregnant SD rats (pregnancy day 21); spontaneous contractions summed over 5 minutes; read-out: EC50 (concentration producing 50% inhibition of uterine contraction). How it is done:
Also, uteri of pregnant rats were isolated and preparations were made. The experiment was conducted according to the Magnus method. The sum of uterine contractions during 5 minutes before the addition of the drug was expressed as 100%. The drug was added cumulatively. The β2-adrenoceptor stimulating effects were evaluated as the concentration of the drug required when the sum of the contractions during 5 minutes after the addition of the drug produces 50% decrease of the sum of the contractions during 5 minutes before the addition of the drug (i.e., EC50 value).
The Experiment for Measuring β2-Adrenoceptor Stimulating Effects
Uteri of pregnant SD rats (pregnancy day 21) were isolated and longitudinal strips of approximately 15 mm in length and approximately 5 mm in width free from the basal plate were prepared. The experiment was conducted according to the Magnus method. The preparations with a tension of 0.5 g were exposed to Locke-Ringer solution maintained at 37° C. and gassed with a mixture of 95% oxygen and 5% carbon dioxide. Spontaneous contractions of myometrium were isometrically measured with a force-displacement transducer and recorded on a rectigram. The drug was cumulatively added to the Magnus bath every 5 minutes. The drug efficacy was evaluated as the concentration of the drug required to produce 50% of the inhibition of uterine contraction (i.e., EC50 value) by comparing the sum of uterine contraction during 5 minutes after the addition of the drug with the sum of uterine contractions during 5 minutes before the addition of the drug which was expressed as 100%.

The next data set relates to male ICR rats. The data set is described as follows: Acute toxicity test. The data set is classed as in vivo. An excerpt:
Furthermore, the compounds represented by the above general formula (I) of the present invention are very safe compounds.

Where a name gives a salt, the structure may show the parent alone.

T2 sequence (P10608 whole entry): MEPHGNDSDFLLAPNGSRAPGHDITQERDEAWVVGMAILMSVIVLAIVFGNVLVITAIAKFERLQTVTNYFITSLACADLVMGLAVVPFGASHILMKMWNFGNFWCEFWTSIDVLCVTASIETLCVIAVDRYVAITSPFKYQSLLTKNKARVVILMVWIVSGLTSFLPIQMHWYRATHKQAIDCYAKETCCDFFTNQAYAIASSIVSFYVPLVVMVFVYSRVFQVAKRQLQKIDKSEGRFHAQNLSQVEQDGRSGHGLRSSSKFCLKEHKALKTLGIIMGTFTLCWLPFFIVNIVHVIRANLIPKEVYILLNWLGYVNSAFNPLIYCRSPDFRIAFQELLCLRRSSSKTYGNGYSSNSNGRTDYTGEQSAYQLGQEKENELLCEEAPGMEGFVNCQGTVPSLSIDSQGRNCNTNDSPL
T1 sequence (P18090 whole entry): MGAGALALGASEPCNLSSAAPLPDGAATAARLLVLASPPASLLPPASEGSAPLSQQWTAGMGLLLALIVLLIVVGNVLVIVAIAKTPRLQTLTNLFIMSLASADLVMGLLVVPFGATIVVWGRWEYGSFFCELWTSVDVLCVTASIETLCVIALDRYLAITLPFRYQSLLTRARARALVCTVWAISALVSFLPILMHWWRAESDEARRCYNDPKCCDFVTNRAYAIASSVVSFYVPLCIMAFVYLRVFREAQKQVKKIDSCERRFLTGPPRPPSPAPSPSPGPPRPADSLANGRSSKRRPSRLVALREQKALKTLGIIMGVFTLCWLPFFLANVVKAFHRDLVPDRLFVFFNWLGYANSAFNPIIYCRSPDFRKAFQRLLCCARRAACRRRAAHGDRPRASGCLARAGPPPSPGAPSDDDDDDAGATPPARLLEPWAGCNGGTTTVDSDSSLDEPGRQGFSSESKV

For `C[C@H](Cc1ccc(OCC(=O)O)cc1)NC[C@H](O)c1cccc(Cl)c1` [BRL-37344, reference compound], the EC50 on β3-adrenoceptor came out at 0.0016 µM; at β1-adrenoceptor, 0.27 µM; on β2-adrenoceptor, 0.009 µM.
With `CCOC(=O)C(C)(C)Oc1ccc(CCN[C@@H](C)[C@H](O)c2ccc(O)cc2)c(Cl)c1` [Compound 7, Ethyl 2-[3-chloro-4-[2-[[(1S,2R)-2-hydroxy-2-(4-hydroxy-phenyl)-1-methylethyl]amino]ethyl]phenoxy]-2-methyl-propionate hydrochloride], the EC50 was 0.3 µM on β1-adrenoceptor and 0.045 µM at β2-adrenoceptor.
For the compound `C[C@H](NCCc1ccc(OC(C)(C)C(=O)O)cc1Cl)[C@H](O)c1ccc(O)cc1` [Compound 9, 2-[3-Chloro-4-[2-[[(1S,2R)-2-hydroxy-2-(4--hydroxyphenyl)-1-methylethyl]amino]ethyl]phenoxy]-2-methylpropionic acid], the EC50 at β1-adrenoceptor is 35 µM; on β2-adrenoceptor it was 3.1 µM. Also, the “death of animals in acute toxicity test” value in the data set with male ICR rats (male ICR rats of 4 weeks age, intravenous, 400 mg/kg, during 24 hours after administration, 400 mg/kg) is listed as “no death was observed”; with male ICR rats (male ICR rats of 4 weeks age, intravenous, 400 mg/kg, during 24 hours after administration; 400 mg/kg)) it was “No death of animals was observed”.
As to `C[C@H](NCCc1ccc(OC(C)(C)C(=O)O)cc1)[C@H](O)c1ccc(O)cc1` [Compound 10, 2-[4-[2-[[(1S,2R)-2-Hydroxy-2-(4-hydroxyphenyl)-1-methyl-ethyl]amino]ethyl]phenoxy]-2-methylpropionic acid], the EC50 on β2-adrenoceptor came out at 3.9 µM.
For `C[C@H](NCCc1ccc(OC(C)(C)C(=O)O)c(Cl)c1)[C@H](O)c1ccc(O)cc1` [Compound 11, 2-[2-Chloro-4-[2-[[(1S,2R)-2-hydroxy-2-(4-hydroxyphenyl)-1-methylethyl]amino]ethyl]phenoxy]-2-methylpropionic acid], the EC50 is greater than 100 µM on β1-adrenoceptor and 38 µM on β2-adrenoceptor.
Regarding `Cc1cc(CCN[C@@H](C)[C@H](O)c2ccc(O)cc2)ccc1OC(C)(C)C(=O)O` [Compound 12], the EC50 on β1-adrenoceptor and at β2-adrenoceptor was greater than 100 µM in each case.
Turning to `C[C@H](NCCc1ccc(NC(C)(C)C(=O)O)cc1)[C@H](O)c1ccc(O)cc1` [Compound 13, 2-[[4-[2-[[(1S,2R)-2-Hydroxy-2-(4-hydroxyphenyl)-1-methyl-ethyl]amino]ethyl]phenyl]amino]-2-methylpropionic acid], the EC50 at β1-adrenoceptor is 39 µM; at β2-adrenoceptor it was 11 µM.
Regarding `C[C@H](NCCc1ccc(NC(C)(C)C(=O)O)cc1Cl)[C@H](O)c1ccc(O)cc1` [Compound 14, 2-[[3-Chloro-4-[2-[[(1S,2R)-2-hydroxy-2-(4-hydroxyphenyl)-1-methylethyl]amino]ethyl]phenyl]amino]-2-methylpropionic acid], the results for the EC50 on β1-adrenoceptor and on β2-adrenoceptor were 2.2 µM and 1.4 µM, respectively.
